Measurements as given in the NIST ThermoML archive (doi:10.1016/j.jct.2018.12.008).

Tests used:
[1] = mn = molality of the nth substance listed, in mol/kg; details: 100 kPa, Liquid; for viscosity: Falling or rolling sphere viscometry; for electrical conductivity: Frequency=0.003 MHz, Alternating current cell with electrodes; for mass density: Vibrating tube method
[2] = 100 kPa, Liquid, Falling or rolling sphere viscometry

CCCC[n+]1ccc(C)cc1.[Br-] [1-butyl-4-methylpyridinium bromide] + O
[1]
Details	electrical conductivity, 288.15 K [S/m]	electrical conductivity, 298.15 K [S/m]	electrical conductivity, 308.15 K [S/m]	mass density, 288.15 K [kg/m3]	mass density, 298.15 K [kg/m3]	mass density, 308.15 K [kg/m3]	viscosity, 288.15 K [mPa·s]	viscosity, 298.15 K [mPa·s]	viscosity, 308.15 K [mPa·s]
m1 = 0.0011	–	–	–	999.126	997.066	994.057	1.135	0.8895	0.7239
m1 = 0.0018	–	–	–	999.138	997.081	994.066	1.137	0.8911	0.7267
m1 = 0.0021	0.0186	0.023	0.0278	999.139	997.093	994.069	1.137	0.891	0.727
m1 = 0.0036	–	–	–	999.163	997.131	994.087	1.14	0.894	0.7317
m1 = 0.0043	0.0358	0.0444	0.054	999.177	997.148	994.099	1.141	0.895	0.734
m1 = 0.0065	0.0536	0.0671	0.0809	999.217	997.205	994.13	1.146	0.9	0.742

CCCCCC[n+]1ccc(C)cc1.[Br-] [1-hexyl-4-methylpyridinium bromide] + O
[1]
Details	electrical conductivity, 288.15 K [S/m]	electrical conductivity, 298.15 K [S/m]	electrical conductivity, 308.15 K [S/m]	mass density, 288.15 K [kg/m3]	mass density, 298.15 K [kg/m3]	mass density, 308.15 K [kg/m3]	viscosity, 288.15 K [mPa·s]	viscosity, 298.15 K [mPa·s]	viscosity, 308.15 K [mPa·s]
m1 = 0.0011	–	–	–	999.106	997.049	994.045	1.134	0.8886	0.721
m1 = 0.0018	–	–	–	999.113	997.053	994.051	1.135	0.8893	0.7216
m1 = 0.0021	0.0177	0.022	0.0266	999.119	997.057	994.054	1.135	0.889	0.722
m1 = 0.0036	–	–	–	999.129	997.069	994.067	1.136	0.8907	0.7231
m1 = 0.0043	0.0345	0.0431	0.0522	999.138	997.073	994.072	1.136	0.891	0.724
m1 = 0.0065	0.0512	0.0635	0.077	999.156	997.088	994.09	1.138	0.893	0.725

CCCCCCCC[n+]1ccc(C)cc1.[Br-] [1-octyl-4-methylpyridinium bromide] + O
[1]
Details	electrical conductivity, 288.15 K [S/m]	electrical conductivity, 298.15 K [S/m]	electrical conductivity, 308.15 K [S/m]	mass density, 288.15 K [kg/m3]	mass density, 298.15 K [kg/m3]	mass density, 308.15 K [kg/m3]	viscosity, 288.15 K [mPa·s]	viscosity, 298.15 K [mPa·s]	viscosity, 308.15 K [mPa·s]
m1 = 0.0011	–	–	–	999.141	997.088	994.07	1.134	0.8878	0.7215
m1 = 0.0018	–	–	–	999.186	997.125	994.101	1.135	0.8882	0.7225
m1 = 0.0021	0.0176	0.0219	0.0265	999.196	997.135	994.115	1.136	0.891	0.727
m1 = 0.0036	–	–	–	999.266	997.199	994.174	1.136	0.8892	0.7255
m1 = 0.0043	0.0344	0.042	0.0517	999.3	997.233	994.42	1.138	0.892	0.731
m1 = 0.0065	0.051	0.0634	0.076	999.402	997.329	994.283	1.139	0.893	0.734

O [water]
[2]
Details	viscosity [mPa·s]
288.15 K	1.133
298.15 K	0.89
308.15 K	0.719

O [water] + CCCCCCCC[n+]1ccc(C)cc1.[Br-]
[1], m2 = 0
Details	electrical conductivity [S/m]	viscosity [mPa·s]
288.15 K	0.000101	1.133
298.15 K	0.00015	0.89
308.15 K	0.000216	0.719

O [water] + CCCCCC[n+]1ccc(C)cc1.[Br-]
[1], m2 = 0
Details	electrical conductivity [S/m]	viscosity [mPa·s]
288.15 K	0.000101	1.133
298.15 K	0.00015	0.89
308.15 K	0.000216	0.719

O [water] + CCCC[n+]1ccc(C)cc1.[Br-]
[1], m2 = 0
Details	electrical conductivity [S/m]	viscosity [mPa·s]
288.15 K	0.000101	1.133
298.15 K	0.00015	0.89
308.15 K	0.000216	0.719
